# Active and inactive are the calls of the source. No cut-off for these calls is given here.
# How the values were obtained:
# [1] = test system: IB3-1; test: Reduction of NF-kappaB binding to DNA in cystic fibrosis IB3-1 cells at 8 ug after 24 hrs; assay type: functional
# [2] = species on record: Homo sapiens; test: (§1) Reduction of NF-kappaB binding to DNA in cystic fibrosis 16HBE14o-AS3 cells at 8 ug after 24 hrs; assay type: functional
# [3] = species on record: Homo sapiens; test: (§2) Reduction of NF-kappaB binding to DNA in cystic fibrosis 2CFSMEo cells at 8 ug after 24 hrs; assay type: functional
# [4] = test system: IB3-1; test: Reduction of Sp1 binding to DNA in cystic fibrosis IB3-1 cells at 8 ug after 24 hrs; assay type: functional
# [5] = species on record: Homo sapiens; test: (§3) Reduction of Sp1 binding to DNA in cystic fibrosis 16HBE14o-AS3 cells at 8 ug after 24 hrs; assay type: functional
# [6] = species on record: Homo sapiens; test: (§4) Reduction of Sp1 binding to DNA in cystic fibrosis 2CFSMEo cells at 8 ug after 24 hrs; assay type: functional
# [7] = test system: IB3-1; test: Reduction of TNFalpha mRNA level in cystic fibrosis IB3-1 cells at 8 ug after 24 hrs relative to control; assay type: functional, Homo sapiens; parameters: scale not given: the % may be the effect or the level left
# [8] = Reduction of TNFalpha mRNA level in cystic fibrosis 16HBE14o-AS3 cells at 8 ug after 24 hrs relative to control; assay type: functional, Homo sapiens; parameters: scale not given: the % may be the effect or the level left
# [9] = Reduction of TNFalpha mRNA level in cystic fibrosis 2CFSMEo cells at 8 ug after 24 hrs relative to control; assay type: functional, Homo sapiens; parameters: scale not given: the % may be the effect or the level left
# [10] = test system: IB3-1; test: Reduction of TNFalpha protein level in cystic fibrosis IB3-1 cells at 8 ug after 24 hrs by ELISA relative to control; assay type: functional, Homo sapiens; parameters: scale not given: the % may be the effect or the level left
# [11] = Reduction of TNFalpha protein level in cystic fibrosis 16HBE14oAS3 cells at 8 ug after 24 hrs by ELISA relative to control; assay type: functional, Homo sapiens; parameters: scale not given: the % may be the effect or the level left
# [12] = Reduction of TNFalpha protein level in cystic fibrosis 2CFSMEo cells at 8 ug after 24 hrs by ELISA relative to control; assay type: functional, Homo sapiens; parameters: scale not given: the % may be the effect or the level left
# [13] = as §1; assay type: functional, Homo sapiens; parameters: scale not given: the % may be the effect or the level left
# [14] = as §2; assay type: functional, Homo sapiens; parameters: scale not given: the % may be the effect or the level left
# [15] = as §3; assay type: functional, Homo sapiens; parameters: scale not given: the % may be the effect or the level left
# [16] = as §4; assay type: functional, Homo sapiens; parameters: scale not given: the % may be the effect or the level left
# [17] = Cell viability of IB3-1 cells at 8 ug/ml after 24 hrs by trypan blue exclusion test; assay type: functional, cell-based; conditions: Homo sapiens
# [18] = Cell viability of 16HBE14o-AS3 cells at 8 ug/ml after 24 hrs by trypan blue exclusion test; assay type: functional; conditions: Homo sapiens
# [19] = Cell viability of 16HBE14o-S1 cells at 8 ug/ml after 24 hrs by trypan blue exclusion test; assay type: functional, cell-based; conditions: Homo sapiens
# [20] = Cell viability of 2CFSMEo cells at 8 ug/ml after 24 hrs by trypan blue exclusion test; assay type: functional; conditions: Homo sapiens
# [21] = Cell viability of IB3-1 cells at 16 ug/ml after 24 hrs by trypan blue exclusion test; assay type: functional, cell-based; conditions: Homo sapiens
# [22] = Cell viability of 16HBE14o-AS3 cells at 16 ug/ml after 24 hrs by trypan blue exclusion test; assay type: functional; conditions: Homo sapiens
# [23] = Cell viability of 16HBE14o-S1 cells at 16 ug/ml after 24 hrs by trypan blue exclusion test; assay type: functional, cell-based; conditions: Homo sapiens
# [24] = Cell viability of 2CFSMEo cells at 16 ug/ml after 24 hrs by trypan blue exclusion test; assay type: functional; conditions: Homo sapiens
# [25] = Cell viability of C38 cells at 8 ug/ml after 24 hrs by trypan blue exclusion test
# [26] = Cell viability of C38 cells at 16 ug/ml after 24 hrs by trypan blue exclusion test
smiles,measurement,setting,value
CO[C@@H]1[C@@H](O[C@@H]2O[C@H](C)[C@@H](O[C@H]3C[C@@](C)(O)[C@@H](OC(=O)CC(C)C)[C@H](C)O3)[C@H](N(C)C)[C@H]2O)[C@@H](CC=O)C[C@@H](C)[C@@H](O)/C=C/C=C/C[C@@H](C)OC(=O)C[C@H]1OC(C)=O,Activity,[1]; Homo sapiens,inactive
same,Activity,[2],inactive
same,Activity,[3],inactive
same,Activity,[4]; Homo sapiens,inactive
same,Activity,[5],inactive
same,Activity,[6],inactive
CC[C@H]1OC(=O)[C@H](C)[C@@H](O[C@H]2C[C@@](C)(OC)[C@@H](O)[C@H](C)O2)[C@H](C)[C@@H](O[C@@H]2O[C@H](C)C[C@H](N(C)C)[C@H]2O)[C@](C)(O)C[C@@H](C)CN(C)[C@H](C)[C@@H](O)[C@]1(C)O [AZITHROMYCIN],Activity,[7],35%
same,Activity,[8],25%
same,Activity,[9],30%
same,Activity,[10],45%
same,Activity,[11],50%
same,Activity,[12],40%
same,Activity,[1],40%
same,Activity,[13],45%
same,Activity,[14],45%
same,Activity,[4],60%
same,Activity,[15],64%
same,Activity,[16],65%
same,Activity,[17],> 95%
same,Activity,[18],> 95%
same,Activity,[19],> 95%
same,Activity,[20],> 95%
same,Activity,[21],< 95%
same,Activity,[22],< 95%
same,Activity,[23],< 95%
same,Activity,[24],< 95%
same,Activity,[25],>95%
same,Activity,[26],<95%
